Results: US20210009682A1, “REDUCING CUTANEOUS SCAR FORMATION AND TREATING SKIN CONDITIONS” (Northwestern University, priority 2013, published 2021)
Entries after “also recorded” stand apart in the source; their conditions may differ. Structures can show the parent of a compound that is named as a salt.

How the values were obtained:
dermal fibroblasts = assay: Activation of dermal fibroblasts (α-SMA and pro-Col I expression) by HaCaT condition medium; format: cell-based, human; settings: for activation of fibroblasts: PGE2 receptor blockade in condition medium from HaCaT with increased water loss
Procedure: FIGS. 3A-C. ENaC senses sodium concentration changes in keratinocytes and regulates downstream genes. Stratified HaCaT and fibroblast were co-cultured in transwell plates and subjected to increased water loss and control conditions for 16 hours. Expression of α-SMA and pro-Col I was detected in dermal fibroblasts (HDF) with their specific antibodies and visualized with fluorescence labeled secondary antibodies, Nuclei were stained with DAPI. (FIG. 3A, Panels A-D) Stratified HaCaT and fibroblasts in control condition. (FIG. 3A, Panels E-H) Stratified HaCaT and fibroblasts in increased water loss condition. (FIG. 3A, Panels I-L) Stratified ENaC knockdown HaCaT and fibroblasts in control condition. (FIG. 3A, Panels M-P) Stratified ENaC knockdown HaCaT and fibroblasts in increased water loss condition. (FIGS. 3B-C) The quantification of expression levels of α-SMA and pro-Col I by ImageJ. The scale bar represents 100 μm. *p<0.05, **p<0.01.
FIGS. 4A-C. Show results from Example 1 where it was determine that PGE2 is important for the activation of fibroblasts by keratinocytes. As described in Example 1, condition medium of stratified wild type (or ENaC knockdown) HaCaT culture under increased water loss was collected and supplemented to fibroblasts for 24 hours. Expression of α-SMA and pro-collagen I in dermal fibroblasts was tested as described in
FIG. 3. (FIG. 4A, Panels A-D) Wild type HaCaT condition medium (CM). (FIG. 4A, Panels E-H) ENaC-knockdown HaCaT condition medium. (FIG. 4A, Panels I-L) ENaC-knockdown HaCaT condition medium plus 10 μM of PGE2. (FIGS. 4B-C) Quantification of expression levels of α-SMA (FIG. 4B) and pro-Col I (FIG. 4C) was performed by ImageJ. The scale bar represents 100 μm. **p<0.01.
Since the PGE2 is a downstream product of COX-2 and found to be involved in regulation of fibroblast cytoskeletal dynamics during airway epithelium injury (37), it was hypothesized that PGE2 signaling is important for keratinocyte-fibroblast signaling. […]

[1] = test system: rabbit ear hypertrophic scar; assay: Hypertrophic scar model in the rabbit ear (scar elevation index); format: in vivo; settings: for scar elevation index (SEI): topical, harvested POD28
Procedure: As described in Example 1, full thickness 7 mm excision wounds were made on the ventral side of the rabbit ears at PODO. Amiloride (an ENaC inhibitor) or Celecoxib (a COX-2 inhibitor) was applied to the wounds every other day for a total of three times starting at POD14. Wounds harvested at POD28 and histological analysis was performed. (A-D) Representative pictures of wound histology at POD28. Rabbit ear wounds with Amiloride treatment (B) and control (A) and with Celecoxib treatment (D) and its control (C) are shown. (E) The scar elevation index (SEI) was calculated and used to evaluate the scar formation. (F. G) SEI. Twelve wounds for each dose of treatment and 12 controls were used for the analysis. *P<0.05. Scar bar stands for 1000 μm. **p<0.01. […] The present invention is not limited by such a mechanism and an understanding of the mechanism is not necessary to practice the present invention.
Sustained activation of dermal fibroblasts with accumulation of collagen is the main cause of hypertrophic scars (38, 39). […] The role of the ENaC-COX-2 pathway was investigated in vivo utilizing a well validated hypertrophic scar model in the rabbit ear (31, 40-43). Amiloride, an ENaC antagonist, was topically applied to the rabbit ear wounds after re-epithelialization was complete. Control scars, located on the contralateral ear, were treated with vehicle alone. In this model, absence of scar elevation gives a scar elevation index (SEI) of 1.0, and control wounds heal with an elevated scar (SEI >1). […] This reduction in scarring exceeds other therapies in validated model of hypertrophic scarring (14, 44, 45). In an identically designed experiment, Celecoxib, a COX-2 inhibitor, was applied on rabbit ear wounds to evaluate its effect on formation of hypertrophic scars. Similarly, treatment of 2 mg/wound of Celecoxib on rabbit ear wounds reduced the hypertrophy of the scar from 1.53±0.10 to 1.23±0.07 (FIG. 5C, D, and G).

[2] = test system: stratified keratinocytes (HaCaT); assay: Sodium flux by scanning ion-selective electrode technique (SIET) in stratified keratinocyte culture with increased water loss; format: cell-based, human; design: dose or concentration left out as unconfirmed; settings: amiloride
Procedure: As described in Example 1, HESCs or stratified keratinocytes (HaCaT) were cultured for 16 hours in the indicated conditions and ion fluxes were measured immediately after the samples were submerged in the bathing buffer. Sodium flux in HESCs culture with increased water loss (A) or increased media sodium concentration (10% more than control) (B). Sodium flux in stratified keratinocytes culture with increased water loss (C) or sodium concentration (D). Calcium (E) or chloride (F) flux in stratified keratinocytes culture with increased water loss. (G) Sodium flux in amiloride treated stratified keratinocytes culture with increased water loss. […] Background readings were obtained more than 1000 μm away from the sample. *p<0.05, **p<0.01.
Increased trans-epidermal water loss results in higher sodium flux. To estimate the change of sodium flux of skin, the sodium flux was measured in human ex vivo skin culture (HESC), which retains important elements of in vivo skin and recapitulates the features of human wound repair (25, 26). […] To validate increased TEWL, expression levels of aquaporin 3 (AQP3) were measured, which has been reported as a molecular marker to indicate the hydration conditions of skin (27, 28). […]
Changes in sodium flux were evaluated using a scanning ion-selective electrode technique (SIET). […]

COX-2 [3] = assay: COX-2 mRNA expression by RT-qPCR in human foreskin keratinocytes (HK) culture; format: cell-based; settings: HKs with calcium channel blocked
Procedure: FIGS. 2A-F. Regulation of COX-2 and PGE2 by sodium flux is mediated by ENaC. FIGS. A and B show mRNA expression analysis of COX-2 as described in Example 1. (A) COX-2 mRNA expression in HESCs. HESCs were cultured with increased water loss condition for 4 or 16 hours (n=4). Total RNAs were isolated and RT-qPCR was performed. Gene expression was normalized according to the expression level of GAPDH. The level of COX-2 expression in HESCs treated with increased water loss was compared to that in control cells, which was set at 100% as expression level. (B) COX-2 mRNA expression keratinocytes culture. Stratified wild type or ENaC-knockdown HaCaT cells were cultured with increased water loss or sodium concentration condition for 16 hours (n=4). (C) PGE2 protein expression. Monolayer wild type or ENaC-knockdown HaCaT cells were cultured with increased sodium concentration condition for 16 hours (n=4). The amount of PGE2 in culture medium was measured by ELISA. (D) Western blot analysis (n=4). […] After 10, 30, 60, 240 minutes treatment, samples were harvested and western blot was performed with antibodies against phosphorylated-Akt, and Akt. β-actin was detected as a loading control. […] Cox-2 mRNA (E) and PGE2 (F) protein expression were analyzed by RT-qPCR and ELISA. *p<0.05, **p<0.01. […]

IL-8 = assay: Expression of IL-8 in keratinocytes incubated with trypsin; format: cell-based, human; settings: for up-regulation of IL-8: high concentration of sodium stimulation
Excerpt: (§1) FIGS. 9A-I. Prss8 is an important protein downstream of Nax. […] As a primary function, Prss8 can activate ENaC by cleaving its a subunit. The cleaved and non-cleaved bands can be visualized by an ENaC specific protein with western blotting (H). […] However, the cleavage of the ENaC a subunit was enhance by trypsin in Nax knockdown keratinocytes (H and I). FIG. 10. The keratinocytes differentiation with or without knockdown of Nax. Keratinocytes can be differentiated in differentiation medium to form a multiple cell layer structure like skin epidermis (Panel A). […] Knockdown of Nax inhibited the keratinocyte differentiation (Panel B) with the absence of K10 marker in the cell (Panel E). […] The expression of differentiation markers are similar to the differentiated wild type keratinocytes.
(§2) To further confirm the pathway of Nax-Prss8-ENaC, a Prss8 homolog, trypsin was used to activate the ENaC with the knockdown of Nax.

keratinocytes = assay: Keratinocyte differentiation in differentiation medium (K14/K10 markers); format: cell-based, human; settings: Nax knockdown keratinocytes, daily incubation with differentiation medium containing 10 ug/ml trypsin
Excerpt: as §1, §2

IL-1β = assay: Expression of IL-1β in keratinocytes incubated with trypsin; format: cell-based, human; settings: for up-regulation of IL-1β: high concentration of sodium stimulation
Excerpt: as §1, §2

ENaC a subunit = assay: Cleavage of the ENaC α subunit by western blotting in keratinocytes; format: cell-based, human; settings: Nax knockdown keratinocytes
Excerpt: as §1

COX-2 [4] = assay: Expression of COX-2 in keratinocytes incubated with trypsin; format: cell-based, human; settings: for up-regulation of COX-2: high concentration of sodium stimulation
[5] = wild type keratinocytes, 10 μg/ml trypsin

`CC(C)Oc1ccc2c(=O)c3cc(C(=O)O)ccc3oc2c1` [AH6809] was tested. Which activation of fibroblasts (dermal fibroblasts) did it give?
Its activation of fibroblasts is “reduced activation of fibroblasts to control levels”.

`CCCCCC(O)CCC1CCC(=O)N1CCCCCCC(=O)O` (centres unmarked) [CAY10580] was tested. Which activation of fibroblasts (dermal fibroblasts) did it give?
The activation of fibroblasts was “reduced activation of fibroblasts to control levels”.

How did the “scar elevation index (SEI)” value ([1]; rabbit ear wounds, 2 mg/wound) turn out when `Cc1ccc(-c2cc(C(F)(F)F)nn2-c2ccc(S(N)(=O)=O)cc2)cc1` [Celecoxib] was run?
Its value is 1.23±0.07.

`CCCCC[C@H](O)/C=C/[C@H]1[C@H](O)CC(=O)[C@@H]1C/C=C\CCCC(=O)O` [PGE2, prostaglandin E2] was tested. Which “activation of fibroblasts (α-SMA and pro-Col I)” value (dermal fibroblasts; 10 μM PGE2 added to ENaC knockdown HaCaT culture conditioned medium, 24 hours) did it give?
Its value is “successfully rescued”.

`N=C(N)NC(=O)c1nc(Cl)c(N)nc1N` [amiloride] was tested. Which “scar formation / hypertrophy of rabbit ear scar (in words)” value ([1]; rabbit ear scar treatment, 28 days post wounding) did it give?
The value was “clearly showed the improvement of the scar formation”.

And the “reduction of scar formation compared to control wound healing groups” value ([1]; rabbit ear wounds, lower concentrations)?
Its value is “did not show significant reduction”.

And the “scar elevation index (SEI)” value ([1]; rabbit ear wounds, 0.5 mg/wound)?
Its value is 1.06±0.05.

What about the “enhanced sodium flux due to increased water loss” value [2] of the same compound?
The value was “completely abolished”.

For `COC(=O)C1=C(C)NC(C)=C(C(=O)OC2CCCN(Cc3ccccc3)C2)C1c1cccc([N+](=O)[O-])c1` (centres unmarked) [benidipine hydrochloride], which “increased expression levels of COX-2 during increased water loss or sodium concentration” value (COX-2 [3]) is on record?
The value was “not abolished”.

trypsin was tested. Which “up-regulation of IL-8” value (IL-8; ENaC knockdown keratinocytes) did it give?
The value was “recovered the up-regulation”.

And the “up-regulation of IL-8” value (IL-8; Nax knockdown keratinocytes)?
Its value is “recovered the up-regulation; also recorded: up-regulated”.

What about the “expression of IL-8” value (IL-8; [5]) of the same compound?
Its value is “significantly increased”.

And the differentiation of keratinocytes (keratinocytes)?
The differentiation of keratinocytes was “re-established the differentiation; also recorded: successfully recovered the differentiation”.

What about the “up-regulation of IL-1β” value (IL-1β; ENaC knockdown keratinocytes) of the same compound?
Its value is “recovered the up-regulation”.

What about the “up-regulation of IL-1β” value (IL-1β; Nax knockdown keratinocytes) of the same compound?
The value was “recovered the up-regulation; also recorded: up-regulated”.

What about the “expression of IL-1β” value (IL-1β; [5]) of the same compound?
Its value is “significantly increased”.

And the “cleavage of the ENaC a subunit” value (ENaC a subunit)?
Its value is “enhance”.

What about the “up-regulation of COX-2” value (COX-2 [4]; ENaC knockdown keratinocytes) of the same compound?
The value was “but not in ENaC knockdown cells”.

And the “up-regulation of COX-2” value (COX-2 [4]; Nax knockdown keratinocytes)?
Its value is “recovered the up-regulation; also recorded: up-regulated”.

What about the “expression of COX-2” value (COX-2 [4]; [5]) of the same compound?
Its value is “significantly increased”.
